The nature of the series: gradient 5% acetonitrile 3 min, to 50% in 2 min, to 85% in 15 min, held 3 min, 100 µL/min. To be noted: column: Zorbax Extend-C18 2.1 x 50 mm; eluents: water / acetonitrile, 0.1% formic acid. In outline:
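Retention times come from adduct peaks that were picked computationally and then checked by hand. The standards, pure and pooled in mixtures of ~100 molecules, were run on a Zorbax Extend-C18 column (2.1 × 50 mm, 1.8 μm) at 100 μL/min with water and acetonitrile, each with 0.1% formic acid. Detection was by quadrupole time-of-flight mass spectrometry in positive and negative ionization mode, with a dead volume of 40 μL and a dwell volume of 900 μL.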
Compound `O=C(NCc1ccc(Cl)cc1)c1nc(-c2ccncc2)cs1` registered an RP-LC retention time of 687 s.
The result for `Cn1cc(S(=O)(=O)N2CCCC2)cc1C(=O)N1CCC(Cc2ccccc2)CC1` reads 960 s.
As for `CCc1nc2cc(-c3noc(Cc4ccsc4)n3)ccc2o1`, the figure is 1030 s; as for `COc1ccc2c(c1)C1(CCN(C(=O)c3ccc(OC)c(OC)c3)C1)C(=O)N2C` (centres undefined), 886 s.
The compound `CC(C)CCNC(=O)C1(C)Cn2nc(C(=O)NCc3ccc(Cl)cc3)cc2C(=O)N1C` (centres undefined) yielded an RP-LC retention time of 822 s.
In turn, `Cn1cnc(S(=O)(=O)N2CCC(CCOc3ccccc3F)C2)c1` (centres undefined) had an RP-LC retention time of 828 s.
With `COc1cccc(Nc2c(-c3ccccc3)nc3cnccn23)c1`, the RP-LC retention time was 828 s.
In the case of `COC(=O)C1=CN(c2ccc(OC)c(OC)c2)c2ccccc2S1(=O)=O`, the RP-LC retention time amounted to 763 s.
The compound `CCCNC(=O)C1CCCN(c2nc3ncn(CC(=O)NC4CCc5ccccc54)c(=O)c3s2)C1` (centres undefined) had an RP-LC retention time of 709 s.
The result for `COCCCNc1nc(-c2ccc(C(C)(C)C)cc2)nc2ccccc12` reads 843 s.
For the compound `O=C(NCc1ccc(Cl)cc1)c1ccc2c(c1)nc1n2CCN(Cc2ccccn2)C1=O`, the RP-LC retention time was 675 s.
The compound `Cc1ccc(-c2ccc3nn(Cc4cccc(Br)c4)c(=O)n3n2)cc1C` showed an RP-LC retention time of 1010 s.
Take `CCn1cc(C(=O)Nc2cccc(F)c2)c(S(=O)(=O)N2CCSCC2)n1`: the RP-LC retention time is 845 s.
Compound `O=C(c1cccs1)N1CCCCC1c1nncn1Cc1ccccc1` (centres undefined) yielded an RP-LC retention time of 642 s.
`Cc1cccc(NC(=O)COc2cccc3c(=O)n(C)ccc23)c1` yielded an RP-LC retention time of 798 s.
As for `CCCN1C(=O)COc2ccc(-c3noc(-c4cc(OC)cc(OC)c4)n3)cc21`, the figure is 1240 s; as for `COc1ccc(C(=O)Nc2ccc3c(c2)Sc2ncccc2C(=O)N3C(C)C)c(OC)c1`, 951 s.
In turn, `COc1ccc(CC(=O)N2CCn3cnnc3C2)cc1Cl` displayed an RP-LC retention time of 621 s.
`Cc1ccc2oc(-c3noc(C(=O)NC(C)Cc4ccco4)n3)c(C)c2c1` (centres undefined) showed an RP-LC retention time of 1180 s.
As for `CCC(=O)N1CCC(N2CC(OCC3CC3)C23CCOCC3)CC1` (centres undefined), the RP-LC retention time was 577 s.
On to `Cn1c(=O)sc2cc(S(=O)(=O)N3CCC(C(=O)NCc4cccnc4)CC3)ccc21`, for which the RP-LC retention time came out at 603 s.
`Cc1cc(C)cc(NC(=O)C2CCN(C(=O)C3Sc4ccccc4NC3=O)CC2)c1` (centres undefined): the RP-LC retention time is 818 s.
As for `COc1cccc(N2CCN(c3nc(C(=O)NCCN4CCOCC4)cs3)CC2)c1`, the figure is 667 s.
Compound `Cc1ccc(NS(=O)(=O)c2ccc3c(c2)C(=O)N(C)c2ncccc2O3)cc1C` showed an RP-LC retention time of 970 s.
In turn, `CCS(=O)(=O)N1CCC(c2ccccc2)C1` (centres undefined) displayed an RP-LC retention time of 791 s.
As for `NS(=O)(=O)c1ccc(NC(=O)NC2CC(=O)N(c3ccc(Cl)cc3)C2)cc1` (centres undefined), the figure is 657 s; as for `CCN1CCCC1CNC(=O)c1nnc(-c2ccc(S(=O)(=O)N3CCCCC3)cc2)o1` (centres undefined), 645 s.
`Cn1ncc(N2CCCC(C(=O)Nc3ccc4c(c3)CCC4)C2)cc1=O` (centres undefined) had an RP-LC retention time of 786 s.
Turning to `O=C(Cn1cnc2c(sc3nc(-c4ccccc4)ccc32)c1=O)NCc1ccc2c(c1)OCO2`, the RP-LC retention time came to 950 s.
As for `O=C(CN1CCN(Cc2ccc(F)cc2)C1=O)NCCc1ccncc1`, the figure is 596 s.
As to `CCc1ccc(NC(=O)C2CCCN2S(=O)(=O)c2cc3c(cc2C)NC(=O)C(C)O3)cc1` (centres undefined), the RP-LC retention time was found to be 842 s.
With `COCCN1C(=O)CCc2cc(NC(=O)CCc3ccccc3)ccc21`, the RP-LC retention time is 761 s.
The result for `COc1cc(Cl)ccc1-c1nc(-c2ccc3c(c2)oc(=O)n3C)no1` reads 1060 s; that for `CCc1c(C(=O)O)nnn1-c1ccc(C)c(F)c1`, 744 s.
The result for `Cc1ccccc1CN1C(=O)N(c2ccc(F)cc2)c2ncccc2S1(=O)=O` reads 1100 s.
As for `CCOC(=O)c1[nH]c(C)c(CCC(=O)N2CCC(C(=O)NCc3cccc(OC)c3)CC2)c1C`, the RP-LC retention time came out at 773 s.
The result for `Cc1ccc(NC(=O)N2C[C@@H](F)C[C@H]2C(=O)N2CCc3ccccc3C2)cc1Cl` reads 895 s; that for `COc1ccc(CN2C(=O)[C@H](OC)[C@@H]2C2=CCN(C(=O)C3(c4ccccc4)CC3)CC2)cc1`, 870 s; that for `CC(C)n1cnc2cc(CNC(=O)c3ccc(F)cc3F)ccc21`, 623 s.
Consider `CCCn1c(=O)sc2cc(S(=O)(=O)N3CCC(C(=O)NC4CCC(C)CC4)CC3)ccc21` (centres undefined), for which the RP-LC retention time stood at 1030 s.
`Cc1ccc(C)c(C(=O)Nc2ccc3c(c2)Sc2ncccc2C(=O)N3C)c1` yielded an RP-LC retention time of 888 s.
For the compound `CN(C)CC1CCN(C(=O)NC2CCCCC2)CC1`, the RP-LC retention time is 570 s.
For the compound `O=C(Nc1ccccc1F)C1COc2ccccc2C1` (centres undefined), the RP-LC retention time stood at 874 s.
In turn, `Cc1ccc(CNC(=O)C2CCCN(S(=O)(=O)c3c[nH]c(C(=O)N4CCCC4)c3)C2)cc1` (centres undefined) returned an RP-LC retention time of 762 s.
As for `Cc1noc(C)c1CNC(=O)c1ccccn1`, the figure is 648 s; as for `Cc1ccc(Cl)cc1NC(=O)N1CCCC(Cn2cnc3cccnc32)C1` (centres undefined), 709 s; as for `O=C(c1ccco1)N1[C@H]2CC[C@@H]1c1cnc(-c3ccc(F)cc3)nc1C2`, 858 s.
In the case of `CCc1ccc(NC(=O)C2CCN(S(=O)(=O)c3cc(-c4noc(C5CC5)n4)cs3)CC2)cc1`, the RP-LC retention time was found to be 1100 s.
As for `Cc1cc(N2CCN(C(=O)CCc3ccccc3)CC2)nc2nnc(C)n12`, the RP-LC retention time stood at 616 s.
Consider `COc1ccc(C(=O)Nc2cc(OC)nc(OC)n2)cc1`, for which the RP-LC retention time worked out at 798 s.
The result for `COc1cc(NC(=O)C2(Cc3ccccc3)CCCCC(=O)N2)cc(OC)c1` (centres undefined) reads 847 s; that for `Cn1cc(CN2CCC(C(=O)NCc3ccccc3)CC2)c2cc(Cl)ccc21`, 714 s.
Compound `CCNC(=O)C1CCN(c2nc3ccc(-c4ccccc4)nc3s2)CC1` came in with an RP-LC retention time of 835 s.
As for `COC(=O)c1cccc(NC(=O)CSc2cc(N3CCN(c4ccc(OC)cc4)CC3)ncn2)c1`, the RP-LC retention time worked out at 905 s.
As to `COc1ccc(-c2cc(N3CCN(C(=O)Nc4ccc(OC)c(OC)c4)CC3)ncn2)cc1`, the RP-LC retention time was 620 s.
The compound `COc1ccc(CNC(=O)Cn2c(=O)cc(-c3nc(C)no3)c3ccccc32)cc1` displayed an RP-LC retention time of 810 s.
In turn, `Cc1cc2nc(C(F)(F)F)c(=O)n(C(C)C(=O)NCCCOC(C)C)c2cc1C` (centres undefined) showed an RP-LC retention time of 1140 s.
As for `COc1ccc(S(=O)(=O)N2CCCC(C(=O)Nc3ccc4c(c3)OCO4)C2)cc1Cl` (centres undefined), the figure is 941 s.
The result for `O=C(Cn1cnc(-c2cccs2)cc1=O)NCCn1nc(-c2ccco2)ccc1=O` reads 636 s.

(Values after the METLIN SMRT retention time set (Domingo-Almenara et al. 2019).)
